The results in this text go back to paper PMC12293755, “Synthesis and Cytotoxicity Evaluation of Denitroaristolochic Acids: Structural Insights and Mechanistic Implications in Nephrotoxicity” (Biomolecules, 2025).

Series [1] is described as follows: CCK-8 cytotoxicity assay in HK2 cells. It counts as cell-based, human. The following applies: human, CCK-8, 24 h compound exposure, 3 to 1000 μM, ND: not detected, read-out: IC50 (μM), cytotoxic effects on HK2 cells in vitro. The method, then:
(§1) This study systematically investigated the cytotoxic effects and structure-activity relationships of denitroaristolochic acid analogs (DAA-II, DAA-III, DAA-IV, DAA-V) on human renal cortical proximal tubular epithelial cells (HK2) using the cell counting kit-8 (CCK-8) assay. HK2 cells were maintained in Dulbecco’s modified eagle medium (DMEM) supplemented with 10% fetal bovine serum under standard culture conditions (37 °C, 5% CO2). At 80% confluence, cells were trypsinized and seeded into 96-well plates at a density of 1 × 10^4 cells/well, followed by a 4–6 h attachment period prior to compound exposure. Stock solutions ([…]) of each DAA were prepared in DMSO and serially diluted to final concentrations ranging from 3 to 1000 μM, with DMSO concentration strictly maintained at 0.5% (v/v) in all treatment groups. Experimental controls included AA-I as positive control and 0.5% DMSO-containing medium as vehicle control. Following 24 h compound exposure, cell viability was assessed using CCK-8 reagent according to manufacturer specifications: 10 μL CCK-8 solution was added to each well, followed by 2 h incubation under light-protected conditions. Absorbance was measured at 450 nm using a microplate reader, with morphological observations conducted via inverted phase-contrast microscopy.
(§2) This study systematically evaluated the cytotoxic effects of aristolochic acids (AAs) on HK2 cells (the HK2 cell lines were from the Cell Bank of the Chinese Academy of Sciences) using the CCK-8 assay. […] This finding provides novel insights into the toxicological mechanisms of aristolochic acid analogs, and their precise mode of action warrants further elucidation through integrated toxicological approaches, including metabolomic profiling, signaling pathway screening, and molecular docking studies.
(Tetrazolium assays rely on reduction of a dye to a coloured formazan, in cell work by metabolically active cells.)

For the next series, the system named is HK2 cells. Description: CCK-8 cytotoxicity assay in HK2 cells. It counts as cell-based, human. The following applies: CCK-8, 24 h compound exposure, 3 to 1000 μM. The method, then: as §1, §2

Regarding `COc1cc(OC)c2ccc3c(C(=O)O)cc4c(c3c2c1)OCO4` [DAA-IV, 8,10-dimethoxyphenanthro [3,4-d][1,3]dioxole-5-carboxylic acid], in series [1], the IC50 – broadly, the concentration at which inhibition is half-maximal – was 515 µM.

As for `COc1cc2ccc3c(C(=O)O)cc4c(c3c2cc1OC)OCO4` [DAA-V, 9,10-Dimethoxyphenanthro [3,4-d][1,3]dioxole-5-carboxylic acid], in the series with HK2 cells, the “cytotoxicity in human renal proximal tubular epithelial cells (result in words)” value is “no detectable cytotoxicity”.

Consider `COc1cccc2c1cc([N+](=O)[O-])c1c(C(=O)O)cc3c(c12)OCO3` [AA-I, aristolochic acid I, reference compound], for which the IC50 at 24 h in series [1] is 270 µM.

For the compound `COc1ccc2ccc3c(C(=O)O)cc4c(c3c2c1)OCO4` [DAA-III, 10-Methoxyphenanthro [3,4-d][1,3]dioxole-5-carboxylic acid], the IC50 in series [1] worked out at 371 µM.

On to `O=C(O)c1cc2c(c3c1ccc1ccccc13)OCO2` [DAA-II, phenanthro [3,4-d][1,3]dioxole-5-carboxylic acid], for which, in the series with HK2 cells, the “cytotoxicity in human renal proximal tubular epithelial cells (result in words)” value was “no detectable cytotoxicity”.
